Data set [1] in a line: Difference in body weight of mice before and after naloxone precipitation. In kind it is in vivo, KM mice. The settings on record: morphine-dependent mice, methadone 20 mg/kg. How it is done: (§1) 50 KM mice (female:male 1:1) were randomized into 5 groups. Group (1) was a blank control group, and the mice were subcutaneously injected with normal saline. […] Each group was given a different treatment. Group (1), that is, the blank control group, was given the same volume of normal saline. […] Group (3), that is, the positive control group, was given 20 mg/kg of methadone. Groups (4) and (5), that is, groups with low and high doses of Agriolima agrestis extract prepared in the present invention, were given Agriolima agrestis extract at a dosage of 0.4 g/kg and 0.8 g/kg respectively. Each group of mice was administered for consecutive 3 days. The mice were allowed to free access to water and food. 1 hrs after administration on the first and third days of treatment, naloxone (8 mg/kg) was given for precipitation respectively. The jump reaction of the mice in each group within 30 minutes and the changes of body weight before and after precipitation were observed.

The nature of data set [2]: Difference in body weight of rats before and after naloxone precipitation. The settings on record: morphine-dependent rats, methadone 20 mg/kg, 1 h after precipitation. In kind it is in vivo, Sprague-Dawley rats. How it is done:
(§2) 50 Sprague-Dawley rats (female:male 1:1) were randomized into 5 groups. Group (1) was a blank control group, and the rats were subcutaneously injected with normal saline. […] Each group was given a different treatment. Group (1), that is, the blank control group, was given the same volume of normal saline. […] Group (3), that is, the positive control group, was given 20 mg/kg of methadone. Groups (4) and (5), that is, groups with low and high doses of Agriolima agrestis extract prepared in the present invention, were given Agriolima agrestis extract at a dosage of 0.3 g/kg and 0.6 g/kg respectively. Each group of rats was administered for consecutive 3 days. The rats were allowed to free access to water and food. 45 minutes after administration on the first and third days of treatment, naloxone (5 mg/kg) was given for precipitation respectively. The withdrawal response of the rats within 30 minutes and the changes of body weight before and after precipitation (1 h) were observed.

The test system of data set [3] is morphine-dependent rats. Briefly: Naloxone-precipitated withdrawal symptom scores in morphine-dependent rats. In kind it is in vivo, Sprague-Dawley rats. The settings on record: methadone 20 mg/kg, naloxone 5 mg/kg 45 min after administration, response within 30 min. How it is done: as §2
Data set [4] deals with morphine-dependent mice. As to the kind of experiment: Jumps of morphine-dependent mice upon naloxone-precipitated withdrawal. In kind it is in vivo, KM mice. The settings on record: methadone 20 mg/kg, naloxone 8 mg/kg 1 hr after administration. As to the method:
as §1

In data set [5] the test system is Sprague-Dawley rats. Briefly: Physical dependence test: naloxone-precipitated withdrawal response after 7 days of increasing doses. The note with it: morphine hydrochloride s.c. twice a day, 5 mg/kg to 60 mg/kg, naloxone 5 mg/kg on day 8, within 30 min. It is filed as in vivo. How it is done: The morphine control group was injected subcutaneously with morphine hydrochloride twice a day. […] The Agriolima agrestis extract group was administered twice a day by oral gavage with increasing dose. The dosage was increased daily from […] to 3.0 g/kg and continuously administered until the 7th day. The negative control group was given the same volume of vegetable oil daily, and the administration time and frequency were the same as those in the Agriolima agrestis extract group. […]

The test system of data set [6] is amphetamine-induced excitability in mice. As to the kind of experiment: Amphetamine-induced excitability (spontaneous activity recorder). In kind it is in vivo, KM mice. How it is done: (§3) 40 KM mice (female:male 1:1) were fastened for 12 hrs, but allowed to free access to water. The mice were randomly divided into 4 groups, including a blank control group, a group with low-dose Agriolima agrestis extract (0.4 g/kg) prepared in the present invention, a group with high-dose Agriolima agrestis extract (0.8 g/kg) prepared in the present invention, and a positive control group (estazolam 2 mg/kg). Each group of mice was placed in a YLS-1A multifunctional small animal spontaneous activity recorder. After 5 minutes of accommodation, the number of spontaneous activities of the mice before administration was measured, and the recording time was 10 min.
Each group of mice was administered by oral gavage at the above dosage, and the blank control group was administered with the same volume of normal saline. Each mouse was intraperitoneally injected with amphetamine (8 mg/kg) 30 min after administration. After 15 minutes, the mice were placed in the recorder to observe and record the number of activities of the mice within 10 min.

Data set [7] relates to morphine-induced excitability in mice. Briefly: Morphine-induced excitability (spontaneous activity recorder). In kind it is in vivo, KM mice. How it is done: as §3, with “min. Each group of mice was administered at the above dosage, and the blank control group was administered by oral gavage with the same volume of normal saline. […] After 15 minutes, the mice were placed in the recorder to observe and record the number of activities of the mice within 10 min.” for “min.”

Data set [8] has as its system sleep time of mice with pentobarbital sodium. Briefly: Sleep time with pentobarbital sodium. It is filed as in vivo, KM mice. The note with it: estazolam 2 mg/kg; pentobarbital sodium 50 mg/kg 45 min after administration. How it is done:
40 KM mice (female:male 1:1) were fastened for 12 hrs, but allowed to free access to water. The mice were randomly divided into 4 groups, including a blank control group, a group with low-dose Agriolima agrestis extract (0.4 g/kg) prepared in the present invention, a group with high-dose Agriolima agrestis extract (0.8 g/kg) prepared in the present invention, and a positive control group (estazolam 2 mg/kg). Each group of mice was administered at the above dosage, and the blank control group was administered with the same volume of normal saline. After 45 minutes, each mouse was given 50 mg/kg of pentobarbital sodium, and then the sleep time of each group of mice was recorded (where the time at which the righting reflex disappeared after the administration was taken as the sleep onset time of the mice, and the duration from the time at which the righting reflex disappeared to the time at which the righting reflex returned was taken as the sleep time).

[9] abbreviates: baseline of estazolam 2 mg/kg group, recording time 10 min.

This is an account of results in patent US11116802B2, “Extract effective in treating drug addiction and preparation method therefor” (GUANGXI JIUFU BIOTECHNOLOGY CO., LTD, priority 2016, dated 2021).

With `CCC(=O)C(CC(C)N(C)C)(c1ccccc1)c1ccccc1` (centres unmarked) [methadone], the “Difference in body weight (before precipitation − after precipitation), Day 1” value in data set [1] (day 1) is 0.22 ± 0.19 g; in data set [2] (day 1) it was 15.6 ± 6.39 g. The entries for the “Difference in body weight (before precipitation − after precipitation), Day 3” value in data set [1] (day 3) and in data set [2] (day 3) were 0.46 ± 0.23 g and 2.6 ± 2.75 g, respectively. Further, the “Naloxone-precipitated withdrawal symptom score, Day 1” value in data set [3] (day 1 of treatment) stood at 49.35 ± 14.41. Also, the “Naloxone-precipitated withdrawal symptom score, Day 3” value in data set [3] (day 3 of treatment) was 35.6 ± 18.73. The “Jumps upon precipitated withdrawal, Day 1” value in data set [4] (day 1) is 25.1 ± 6.9 jumps/30 min. Further, the “Jumps upon precipitated withdrawal, Day 3” value in data set [4] (day 3) came to 22.9 ± 6.81 jumps/30 min.

As for `CN1CC[C@]23c4c5ccc(O)c4O[C@H]2[C@@H](O)C=C[C@H]3[C@H]1C5.Cl` [Morphine, morphine hydrochloride], the Withdrawal response score in data set [5] is given as 76.9 ± 14.53.

Regarding `Clc1ccc2c(c1)C(c1ccccc1)=NCc1nncn1-2` [estazolam], the results for the Activities before administration in data set [6] (setting [9]) and in data set [7] (setting [9]) were 183.7 ± 32.99 counts/min and 171.2 ± 38.94 counts/min, respectively. Besides, the Activities after administration in data set [6] (estazolam 2 mg/kg oral gavage, amphetamine 8 mg/kg i.p. 30 min after administration, recorded 15 min later within 10 min) worked out at 83.0 ± 40.14 counts/min; in data set [7] (estazolam 2 mg/kg, morphine 10 mg/kg i.p. 30 min after administration, recorded 15 min later within 10 min), 67.9 ± 40.31 counts/min. Moreover, the “Sleep time of mice” value in data set [8] is on record as 66.22 ± 13.77 min.
